Measured values taken from US8835466B2, “Synthesis and uses of pyroglutamic acid derivatives” (Prodimed, S.A., priority 2006, dated 2014).

Experiments:
[1] = test system: Ehrlich tumour cells (murine mammary adenocarcinoma); experiment: Effect of isomers and BLAS on in vivo tumour growth, Ehrlich tumours (Example 9); parameters: species or system Balb/c mice; conditions: for Tumour surface, overall values (Mean) / Tumour surface, overall values (Median) / Tumour volume, overall values (Mean) / Tumour volume, overall values (Median): 260 ng/mouse i.p. days 6, 7 and 14
From the text: This assay was made in order to compare the effect of each stereoisomer on in vivo tumour growth in mice with the effect of the mixture of all of them challenged with Ehlrich tumours. The same products, equipment, reagents, doses, vehicle and route of administration as in example 8 were used.
Mice were inoculated with Ehrlich tumour cells. It was described as a murine mammary adenocarcinoma. Ehrlich tumour is a murine mammary carcinoma originally raised in an outbred mouse, and therefore it belongs to the so-called non-specific tumours (Subiza J L, Viñuela J E, Rodriguez R, Gil J, Figueredo M A, de la Concha. E G. Development of splenic natural suppressor (NS) cells in Ehrlich tumor bearing mice. Int J Cancer, 44:307 315; 1989). It may grow across histocompatibility barriers and therefore is not mouse strain specific (Carry P J, Prescott D M, Ogilvie G K. Resistance to Ehrlich ascites tumor in a strain of dystrophic mice. Cancer Res., 39:2139-2140; 1979).
Ehrlich cells were maintained in vitro by serial passages every 3-4 days. Cultures were performed with RPMI medium medium (RPMI, 10% foetal calf serum, 2 mM L-glutamine, non essential aminoacids, 1 mM sodium pyruvate, 20 mM HEPES, 80 μg/mL gentamycin; all of them were purchased from Sigma, St. Louis, Mo., USA) by seeding 5×10^6 cells onto 75 cm^2 culture flasks. Tumour cells collected from 48 hour cultures were used as source of cells for the studies described below.
Tumours were established by subcutaneous inoculation in the right hind flank. Mice (Balb/c) were inoculated with 0.2 mL containing 2×10^5 viable Ehrlich cells. The day of subcutaneous inoculation will be considered Day 0 of the test.
(§1) Mice were observed daily and the tumour size recorded twice a week. This was carried out by measuring two perpendicular diameters (L/W) with a calliper. These measures were used to obtain both tumour surface and volume: Tumour surface=L×W(mm^2) Tumour volume=L×W^2×½(mm^3)
(§2) Results were expressed as single values and/or as the mean±SD or median from each experimental group.
A case-control study was performed with treated and control mice in order to determine whether differences between BLAS or each diferent stereoisomer and administration of placebo were present. […] The U-test of Mann Withney was chosen for being one of the better known non-parametrical tests, anyway, results for this test are equivalent both to those of Wilcoxon's sum of ranges and Kruskal-Wallis two-groups test.

[2] = test system: Renca cells (renal cell carcinoma); experiment: Effect of isomers on in vivo tumour growth in mice challenged with Renca cells (Example 7); parameters: species or system Balb/c mice; conditions: 260 ng/mouse i.p. days 6, 7, 14
From the text: This assay was made in order to check the effect of each stereoisomer on in vivo tumour growth in mice challenged with Renca cells. Their effect was compared with placebo. The stereoisomers assayed were:
Renca is a renal cell carcinoma originated in Balb/c mouse strain, and therefore syngeneic in mice with Balb/c genetic background [Melder R J et al., Cancer Immunol. Immunother., 2005, 54:535-547; Felluga B et al., 1969, J. Natl. Cancer Inst. 43:319-333]. Renca is considered a moderate immunogenic tumour and used as suitable model for testing immunointervention approaches [Salup R R, et al., 1992, The Journal of Urology, 147:1120-1123].
Renca cells (CLS, Eppelheim, Germany) were maintained in vitro by serial passages every 3-4 days. Cultures were performed with RPMI medium medium (RPMI, 10% foetal calf serum, 2 mM L-glutamine, non essential amino acids, 1 mM sodium pyruvate, 20 mM HEPES, 80 μg/mL gentamycin; all of them were purchased from Sigma, St. Louis, Mo., USA) by seeding 5×10^6 cells onto 75 cm^2 culture flasks. Tumour cells collected from 48 hour cultures upon trypsinization (Sigma, St. Louis, Mo., USA) were used as source of Renca cells for the studies described below.
Each isomer was tested at the dose levels of 260 ng administered on days 6, 7 and 14 after tumour inoculation.
The treatments were given by intraperitoneal route (i.p.). The volume inoculated was 0.2 mL/animal. This route was chosen because it is the one described in the original method [Pérez S, et al., 2003, Clinical Cancer Research. 9:5776-5785].
Tumours were established by subcutaneous inoculation in the right hind flank. Mice (Balb/c) were inoculated with 0.2 mL containing 10^5 viable Renca cells. The day of subcutaneous inoculation will be considered Day 0 of the test.
as §1, §2
A case-control study was performed with treated and control mice in order to determine whether differences between isomers and administration of placebo were present. […] The U-test of Mann Withney was chosen for being one of the better known non-parametrical tests, anyway, results for this test are equivalent both to those of Wilcoxon's sum of ranges and Kruskal-Wallis two-groups test.
Due to the high dispersion of data, outlayers (animals beyond percentile 25 or above percentile 75 for tumour surface at day 25) were excluded of the study.

[3] = day 13 after tumour inoculation
[4] = day 16 after tumour inoculation
[5] = day 20 after tumour inoculation
[6] = day 23 after tumour inoculation
[7] = day 29 after tumour inoculation
[8] = day 31 after tumour inoculation
[9] = day 35 after tumour inoculation
[10] = day 38 after tumour inoculation
[11] = day 11 after tumour inoculation

Structure (SMILES): Br.N[C@@]1(C[n+]2ccccc2)C[C@H](C(=O)O)NC1=O.[Br-] (single isomer, unassigned; isomer 2) [isomer 2, 3R,5R-1-(3-Amino-5-carboxy-2-oxopyrrolidin-3-ylmethyl)pyridinium bromide hidrobromide]
- Inhibition of the in vivo growth of Ehrlich tumour cells, in words ([1]; 260 ng i.p. days 6, 7 and 14): inhibit the in vivo growth
- Tumour surface, overall values (Mean) ([1]; day 0 after tumour inoculation): 0 mm^2
- Tumour surface, overall values (Median) ([1]; day 0 after tumour inoculation): 0 mm^2
- Tumour volume, overall values (Mean) ([1]; day 0 after tumour inoculation): 0 mm^3
- Tumour volume, overall values (Median) ([1]; day 0 after tumour inoculation): 0 mm^3
- Tumour surface, overall values (Mean) ([1]; day 8 after tumour inoculation): 6.69 mm^2
- Tumour surface, overall values (Median) ([1]; day 8 after tumour inoculation): 4 mm^2
- Tumour volume, overall values (Mean) ([1]; day 8 after tumour inoculation): 10.97 mm^3
- Tumour volume, overall values (Median) ([1]; day 8 after tumour inoculation): 4 mm^3
- Tumour surface, overall values (Mean) [1, 3]: 14.81 mm^2
- Tumour surface, overall values (Median) [1, 3]: 16 mm^2
- Tumour volume, overall values (Mean) [1, 3]: 32.16 mm^3
- Tumour volume, overall values (Median) [1, 3]: 32 mm^3
- Tumour surface, overall values (Mean) [1, 4]: 20.37 mm^2
- Tumour surface, overall values (Median) [1, 4]: 20 mm^2
- Tumour volume, overall values (Mean) [1, 4]: 51.87 mm^3
- Tumour volume, overall values (Median) [1, 4]: 40 mm^3
- Tumour surface, overall values (Mean) [1, 5]: 28.37 mm^2
- Tumour surface, overall values (Median) [1, 5]: 27.5 mm^2
- Tumour volume, overall values (Mean) [1, 5]: 81.81 mm^3
- Tumour volume, overall values (Median) [1, 5]: 68.75 mm^3
- Tumour surface, overall values (Mean) [1, 6]: 35.75 mm^2
- Tumour surface, overall values (Median) [1, 6]: 33 mm^2
- Tumour volume, overall values (Mean) [1, 6]: 113.75 mm^3
- Tumour volume, overall values (Median) [1, 6]: 91.5 mm^3
- Tumour surface, overall values (Mean) [1, 7]: 46.12 mm^2
- Tumour volume, overall values (Mean) [1, 7]: 167 mm^3
- Tumour surface, overall values (Mean) [1, 8]: 50.06 mm^2
- Tumour surface, overall values (Median) [1, 8]: 45 mm^2
- Tumour volume, overall values (Mean) [1, 8]: 191.91 mm^3
- Tumour volume, overall values (Median) [1, 8]: 135 mm^3
- Tumour surface, overall values (Mean) [1, 9]: 60.25 mm^2
- Tumour surface, overall values (Median) [1, 9]: 51 mm^2
- Tumour volume, overall values (Mean) [1, 9]: 258.06 mm^3
- Tumour volume, overall values (Median) [1, 9]: 153 mm^3
- Tumour surface, overall values (Mean) [1, 10]: 75.37 mm^2
- Tumour surface, overall values (Median) [1, 10]: 71 mm^2
- Tumour volume, overall values (Mean) [1, 10]: 372.5 mm^3
- Tumour volume, overall values (Median) [1, 10]: 266.5 mm^3
- Differences in Ehrlich tumour growth rate vs. placebo, statistical significance p (Mann-Whitney U test) ([1]; either in surface or volume, all days scored after the day 13th): < 0.05
- Tumour surface, overall values (Mean) ([2]; day 0 after tumour inoculation): 0 mm^2
- Tumour surface, overall values (Median) ([2]; day 0 after tumour inoculation): 0 mm^2
- Tumour volume, overall values (Mean) ([2]; day 0 after tumour inoculation): 0 mm^3
- Tumour volume, overall values (Median) ([2]; day 0 after tumour inoculation): 0 mm^3
- Tumour surface, overall values (Median) [2, 11]: 0 mm^2
- Tumour volume, overall values (Median) [2, 11]: 0 mm^3
- Tumour surface, overall values (Median) ([2]; day 14 after tumour inoculation): 9 mm^2
